The values that follow come from ChEMBL document CHEMBL1143584, “Synthesis of 2',3'-dideoxynucleoside 5'-alpha-P-borano-beta,gamma-(difluoromethylene)triphosphates and their inhibition of HIV-1 reverse transcriptase” (J Med Chem, 2005).

For data set [1], the target named is Human immunodeficiency virus type 1 reverse transcriptase (Human immunodeficiency virus 1, UniProt Q72547). Description: Inhibitory constant against HIV-1 reverse transcriptase.
Data set [2] can be described thus: Half-life determined in fetal calf serum. In kind it is ADME, Bos taurus. The conditions noted are these: cattle.

`NC1=NCc2c(ncn2[C@H]2CC[C@@H](COP(=O)(O)OP(=O)(O)OP(=O)(O)O)O2)C1=O` had a Ki in data set [1] of 25 nM.
On the same count and under the same terms, then `BP(=O)(OC[C@@H]1C=C[C@H](n2cc(C)c(=O)[nH]c2=O)O1)OP(=O)(O)C(F)(F)P(=O)(O)O` (stereo not given in full), with 45 nM.
For `Cc1cn([C@H]2C[C@H](N=[N+]=[N-])[C@@H](CO[P@](=O)(O)O[P@](=O)(O)OP(=O)(O)O)O2)c(=O)[nH]c1=O` [ZIDOVUDINE TRIPHOSPHATE], the half-life in data set [2] was 2 h. Also, the affinity in data set [1] corresponds to a Ki of 91 nM.
In data set [2], `Nc1ccn([C@H]2CC[C@@H](COP(=O)(O)OP(=O)(O)OP(=O)(O)O)O2)c(=O)n1` [DDCTP] showed a half-life of 0.8 h.
For `BP(=O)(OC[C@@H]1CC[C@H](n2ccc(=O)[nH]c2=O)O1)OP(=O)(O)C(F)(F)P(=O)(O)O` (stereo not given in full), in data set [2], the half-life was over 48 h. This compound returned a Ki in data set [1] of 438 nM.
`Cc1cn([C@H]2C=C[C@@H](COP(=O)(O)OP(=O)(O)OP(=O)(O)O)O2)c(=O)[nH]c1=O` [STAVUDINE TRIPHOSPHATE]: affinity in data set [1] was put at a Ki of 56 nM.
Same read-out and setting: for `BP(=O)(OC[C@@H]1CC[C@H](n2cnc3c(O)nc(N)cc32)O1)OP(=O)(O)C(F)(F)P(=O)(O)O` (single isomer, unassigned; diastereomer I) the value was 71 nM.
Same read-out and setting: for `BP(=O)(OC[C@H]1O[C@@H](n2cc(C)c(=O)[nH]c2=O)C[C@@H]1F)OP(=O)(O)C(F)(F)P(=O)(O)O` (stereo not given in full) the value was 46 nM.
The same measure, in the same setting: for `BP(=O)(OC[C@H]1O[C@@H](n2cc(F)c(N)nc2=O)CS1)OP(=O)(O)C(F)(F)P(=O)(O)O` (stereo not given in full) the value was 1770 nM.
Consider `BP(=O)(OC[C@@H]1CC[C@H](n2ccc(N)nc2=O)O1)OP(=O)(O)C(F)(F)P(=O)(O)O` (stereo not given in full), for which, in data set [2], the half-life was over 48 h. In data set [1], this compound gave an inhibitory constant (Ki) of 23 nM.
In turn, `BP(=O)(OC[C@@H]1CC[C@H](n2cc(C)c(=O)[nH]c2=O)O1)OP(=O)(O)C(F)(F)P(=O)(O)O` (mixture of isomers) displayed a Ki in data set [1] of 236 nM.
`Nc1nc(O)c2ncn([C@H]3C=CC(COP(=O)(O)OP(=O)(O)OP(=O)(O)O)C3)c2n1` (stereo not given in full): affinity in data set [1] was put at a Ki of 37 nM.
Compound `BP(=O)(OC[C@@H]1C=C[C@H](n2cnc3c(O)nc(N)nc32)C1)OP(=O)(O)C(F)(F)P(=O)(O)O` (stereo not given in full) came in with a Ki in data set [1] of 34 nM.
On the same count and under the same terms, for `Nc1ncnc2c1ncn2[C@H]1CC[C@@H](COP(=O)(O)OP(=O)(O)OP(=O)(O)O)O1` [DDA-TRIPHOSPHATE] the value was 20 nM.
Consider `O=c1ccn([C@H]2CC[C@@H](COP(=O)(O)OP(=O)(O)OP(=O)(O)O)O2)c(=O)[nH]1`, for which the half-life in data set [2] was 1 h. The Ki in data set [1] turned out to be 545 nM.
Consider `BP(=O)(OC[C@H]1O[C@@H](n2ccc(N)nc2=O)CS1)OP(=O)(O)C(F)(F)P(=O)(O)O` (mixture of isomers), for which, in data set [2], the half-life was over 48 h. The Ki in data set [1] was found to be 314 nM.
Turning to `Nc1ccn([C@H]2CC[C@@H](CO)O2)c(=O)n1` [ZALCITABINE], in data set [1], the Ki was found to be 51 nM.
With `Nc1ccn([C@@H]2CS[C@H](COP(=O)(O)OP(=O)(O)OP(=O)(O)O)O2)c(=O)n1` [LAMIVUDINE TRIPHOSPHATE], in data set [2], the half-life is 3 h. This compound showed a Ki in data set [1] of 188 nM.
In data set [1], `Cc1cn([C@H]2C[C@H](F)[C@@H](COP(=O)(O)OP(=O)(O)OP(=O)(O)O)O2)c(=O)[nH]c1=O` returned a Ki of 71 nM.
The same measure, in the same setting: for `BP(=O)(OC[C@@H]1CC[C@H](n2cnc3c(N)ncnc32)O1)OP(=O)(O)C(F)(F)P(=O)(O)O` (stereo not given in full) the value was 47 nM.
`BP(=O)(OC[C@H]1O[C@@H](n2cc(C)c(=O)[nH]c2=O)C[C@@H]1N=[N+]=[N-])OP(=O)(O)C(F)(F)P(=O)(O)O` (stereo not given in full) yielded a half-life in data set [2] of over 48 h. The same compound displayed a Ki in data set [1] of 94 nM.
The compound `Cc1cn([C@H]2C[C@H](O)[C@@H](COP(=O)(O)OP(=O)(O)OP(=O)(O)O)O2)c(=O)[nH]c1=O` [DEOXYTHYMIDINE_TRIPHOSPHATE] gave a Ki in data set [1] of 61 nM.
As for `Nc1nc(=O)n([C@H]2CS[C@@H](COP(=O)(O)OP(=O)(O)OP(=O)(O)O)O2)cc1F`, in data set [1], the affinity, expressed as Ki, was 501 nM.

One may read the Ki as the equilibrium dissociation constant of an inhibitor or competing ligand from its target. Read a low Ki as tighter binding. The term half-life denotes how long it takes for the measured level to halve. Read a low half-life as fast loss.
